Data from patent publication US7256042B2, “Process for making hepatocytes from pluripotent stem cells” (Geron Corporation, priority 2000, dated 2007).
Like-named read-outs stand apart in the source and are kept apart here.

Experiments:
[1] = tested on: hES cell derived embryoid bodies; experiment: Comparison of potential hepatocyte differentiation agents; type: cell-based, human; settings: concentration of 5 mM, 6 days
Description: (§1) The effect of sodium butyrate was compared with other potential hepatocyte differentiation agents in a similar protocol. Embryoid bodies were cultured in suspension for 4 days, and then replated on plates coated with collagenase 1. The cells were then cultured in the presence of each compound for 6 days.

[2] = tested on: undifferentiated hES cells; experiment: Direct differentiation of hES cells without embryoid bodies, immunocytochemistry (Example 7); type: cell-based, human; settings: 1% DMSO 4 days, then 2.5% Na-butyrate 6 days
Text: The undifferentiated hES cells were maintained in feeder-free conditions (on Matrigel® in MEF-CM). The strategy was to initiate a global differentiation process by adding the hepatocyte maturation factors DMSO or retanoic acid (RA) to a subconfluent culture. The cells are then induced to form hepatocyte-like cells by the addition of Na-butyrate.
The hES cells were maintained in undifferentiated culture conditions for 2-3 days after splitting. At this time, the cells were 50-60% confluent and the medium was exchanged with unconditioned SR medium containing 1% DMSO. The cultures were fed daily with SR medium for 4 days and then exchanged into unconditioned SR medium containing 2.5% Na-butyrate. The cultures were fed daily with this medium for 6 days; at which time one half of the cultures were evaluated by immunocytochemistry. The other half of the cultures were harvested with trypsin and replated onto collagen, to further promote enrichment for hepatocyte lineage cells. Immunocytochemistry was then performed on the following day.

[3] = tested on: hES cell derived embryoid bodies; experiment: Phenotype of embryoid body cells after 6 days with n-butyrate: immunocytochemistry, glycogen (PAS), BrdU (Example 2); type: cell-based, human; settings: EBs on Matrigel, 20% FBS + 5 mM sodium n-butyrate
Description: Cells were grown on chamber slides in the indicated growth medium, and labeled with 10 μM BrdU for 24 h. Cells were then fixed with 3:1 methanol: acetic acid for 30 minutes, and air-dried overnight in the dark. The fixed cells were rinsed once in PBS, and denatured in 0.07 N NaOH for 2 min followed by quick rinses in PBS pH 8.5 and pH7.4 several times. They were then blocked using 1.5% goat serum (Vector Labs) for 15 min, and incubated with anti BrdU antibody (Sigma) diluted 1:500 in 1.5% goat serum and 0.05% Tween™ 20 for 2 h. The samples were washed thrice in PBS, and then incubated with secondary antibody, which was biotinylated goat anti-mouse immunoglobulin (Vector Labs), at 10 μg/mL diluted in 1.5% horse serum for 30 min. […] Hoechst HO33258 stain (bisbenzimide, Sigma Cat. No. B2883) was mixed into the streptavidin solution at 2.5uM final concentration to stain all the nuclei.
The medium was changed daily or every other day. There was a lot of cell death on day 1 followed by less cell death on the subsequent days.
On the sixth day after plating in the differentiation agent, the cells were analyzed for expression of markers by RT-PCR and immunocytochemistry, following the procedures outlined earlier. Glycogen content in these cells was determined using periodic acid Schiff stain. The number of cells in S phase of cell cycle was determined by incubating the cells with 10 μM BrdU on day 5 after plating, and subsequently staining with anti-BrdU antibody 24 hours later.

H9 hES cells = experiment: Differentiation of hES cells in feeder-free culture, morphology (Example 5); type: cell-based, human; settings: feeder-free H9 hES cells on laminin, SR medium + 5 mM sodium butyrate, about six days after treatment
Description: Undifferentiated hES colonies were passaged continuously in feeder-free conditions as follows. Cultures were incubated in 1 mg/mL collagenase for about 5 minutes at 37° C. The cells were then harvested by scraping the cells off the surface and dissociating them into small clumps. Cells were split at a 1:3 or 1:6 ratio, ˜55,000 cells/mL (17,000 cells/cm^2). The day after replating, colonies of undifferentiated cells could again be identified. Single cells in between the colonies were differentiated. Over the next few days, the undifferentiated cells were seen to proliferate and the colonies became large and compact. The differentiated cells in between the colonies also became more compact. The cells became confluent after 4-7 days of being fed daily with conditioned media. When the cells reached confluence, they were split once more.
For this example, the H9 hES cells (p30+5) were maintained in feeder-free conditions for 30 days (5 passages) before differentiation. The undifferentiated cells were maintained on laminin and fed with MEF-conditioned medium, as described elsewhere in this disclosure. To induce differentiation, the conditioned medium was replaced with SR medium (without supplemental bFGF) containing 5 mM sodium butyrate.

[4] = tested on: EBs generated from hES cells; settings: 20% FBS + 5 mM Na-butyrate, with or without 1% DMSO, 6 days
Description: (§2) The fixed cells were rinsed with PBS twice and blocked for 1 hour in 10% goat serum in PBS. They were then incubated in primary antibody diluted in 10% goat serum and PBS for 2 h. Antibody to albumin, alpha fetoprotein (AFP) (Sigma) and α1-antitrypsin (OEB Biosciences Inc.) were diluted at 1:500, cytokeratin, 8, 18 and 19, desmin, (Neomarkers), vimentin (Dako) and SMA (Sigma) were diluted at 1:200. Cells were then washed 3 times with PBS and incubated in secondary antibody, which was FITC-conjugated anti-mouse IgG diluted 1:100 and Hoechst HH33258 (Sigma) at 1:1000 in 5% goat serum in PBS, and incubated for 1 h. The stained cells were then washed 3 times in PBS, and mounted in Vectashield™ (Vector Labs). Images were taken at 10× and 40× using a Nikon Labophot™ equipped with epifluorescence and a spot CCD camera.
EBs were generated from hES cells in feeder-free conditions. After 4 days in suspension, the EBs were plated in 20% FBS medium supplemented with 5 mM Na-butyrate or 5 mM Na-butyrate and 1% DMSO. The EBs were plated on the following matrices: • 1. collagen I (0.03 mg/mL coated overnight at 37° C.) • 2. growth factor reduced Matrigel® (1:10, coated for 1 h at room temp) • 3. gelatin (1% coated for 2 h at 37° C.)
After 6 days in Na-butyrate the cells were evaluated morphologically and using immunocytochemistry for hepatocyte markers.

hES cells = experiment: Phenotype of hepatocyte lineage cells made using sodium n-butyrate or Trichostatin A; type: cell-based, human; settings: 5 mM sodium n-butyrate; 100 nM Trichostatin A
Description: as §1
At 75-100 nM, Trichostatin A appeared to both induce hepatocyte differentiation and select against survival of other cell types.

[5] = tested on: hES cell derived embryoid body cells; experiment: Immunocytochemistry of embryoid body cells cultured 4 days after plating (Example 1)
Description: Confluent monolayer cultures of hES cells on or off feeder cells were harvested by incubating in collagenase for 15-20 min, following which the cells are scraped from the plate. The cells were then dissociated into clusters and plated in non-adherent cell culture plates (Costar) in a medium composed of 80% KO DMEM (Gibco) and 20% non-heat-inactivated FBS (Hyclone), supplemented with 1% non-essential amino acids, 1 mM glutamine, 0.1 mM β-mercaptoethanol. The cells were seeded at a 1:2 ratio in 2 mL medium per well (6 well plate). The EBs were fed every other day by the addition of 2 mL of medium per well. When the volume of medium exceeded 4 mL/well, the EBs were collected and resuspended in fresh medium. After 4-8 days in suspension, the EBs were plated onto a substrate and allowed to differentiate further.
as §2
Embryoid bodies (EB) were prepared as described in the preceding section. After 5 days in suspension culture, they were harvested and plated on Growth Factor Reduced Matrigel® coated plates and in chamber slides (Nunc). One of the following three conditions was used in parallel: • medium containing 20% fetal bovine serum (FBS); • medium containing 20% FBS and 5 mM sodium butyrate (Sigma); • medium containing 20% FBS, 0.5% DMSO (ATCC), 4 μM dexamethazone (Sigma), 150 ng/ml insulin, 10 ng/ml EGF, 600 nM glucagon (Sigma). In each case, the medium was exchanged every day, and cells were fixed for immunocytochemistry on day 4 after plating.

[6] = Trypsinization and replating onto collagen, stained the following day
[7] = EBs on Growth Factor Reduced Matrigel, day 4, 20% FBS + 5 mM sodium butyrate, or 20% FBS + 0.5% DMSO + dexamethazone, insulin, EGF, glucagon

CCCC(=O)[O-].[Na+] [Sodium n-butyrate]
Effect on hepatocyte differentiation (in words) [1]: equally effective
Cytokeratin 8, % positive ([2]; No trypsinization): >80%
Cytokeratin 18, % positive ([2]; No trypsinization): >80%
Cytokeratin 19, % positive ([2]; No trypsinization): >80%
albumin, % positive ([2]; No trypsinization): 11%
glycogen, % positive ([2]; No trypsinization): 0%
α1-antitrypsin, % positive ([2]; No trypsinization): >80%
α-fetoprotein, % positive ([2]; No trypsinization): 0%
Cytokeratin 8, % positive [2, 6]: 45%
Cytokeratin 18, % positive [2, 6]: 30%
Cytokeratin 19, % positive [2, 6]: 30%
albumin, % positive [2, 6]: 63%
glycogen, % positive [2, 6]: >50%
α1-antitrypsin, % positive [2, 6]: >80%
α-fetoprotein, % positive [2, 6]: 0%
Albumin, % positive cells ([3]; day 6): 55%
CK8, % positive cells ([3]; day 6): 100%
CK18, % positive cells ([3]; day 6): 100%
CK19, % positive cells ([3]; day 6): 100%
Desmin, % positive cells ([3]; day 6): 0%
Glycogen staining (Periodic Acid Schiff), % positive cells ([3]; day 6): 60%
α1-antitrypsin, % positive cells ([3]; day 6): 90%
α-fetoprotein, % positive cells ([3]; day 6): 0%
BrdU staining, % positive cells ([3]; 10 μM BrdU on day 5, stained 24 hours later): 16%
Cell morphology (in words) (H9 hES cells): contained many patches of hepatocyte-like cells
Cytokeratin 18, percentage of cells positive ([4]; Collagen I): 100%
Cytokeratin 19, percentage of cells positive ([4]; Collagen I): 100%
Glycogen, percentage of cells positive ([4]; Collagen I): >60%
albumin, percentage of cells positive ([4]; Collagen I): 79%
α1-antitrypsin, percentage of cells positive ([4]; Collagen I): >90%
α-fetoprotein, percentage of cells positive ([4]; Collagen I): 0
Cytokeratin 18, percentage of cells positive ([4]; Gelatin): 100%
Cytokeratin 19, percentage of cells positive ([4]; Gelatin): 100%
Glycogen, percentage of cells positive ([4]; Gelatin): >60%
albumin, percentage of cells positive ([4]; Gelatin): 50%
α1-antitrypsin, percentage of cells positive ([4]; Gelatin): >90%
α-fetoprotein, percentage of cells positive ([4]; Gelatin): 0
Cytokeratin 18, percentage of cells positive ([4]; Matrigel): 100%
Cytokeratin 19, percentage of cells positive ([4]; Matrigel): 100%
Glycogen, percentage of cells positive ([4]; Matrigel): >60%
albumin, percentage of cells positive ([4]; Matrigel): 56%
α1-antitrypsin, percentage of cells positive ([4]; Matrigel): >90%
α-fetoprotein, percentage of cells positive ([4]; Matrigel): 0
CK18, positive cells (hES cells): 100%
CK19, positive cells (hES cells): 100%
Glycogen staining, positive cells (hES cells): >60%
albumin, positive cells (hES cells): 62%
α1-antitrypsin, positive cells (hES cells): 90%
α-fetoprotein, positive cells (hES cells): 0%
Cell survival and morphology (in words) ([5]; 20% FBS + 5 mM sodium butyrate, 1 day after plating): fairly homogenous population of cells survived
AFP, cells showing positive staining [5, 7]: did not express AFP
Albumin, percentage of cells showing positive staining [5, 7]: about 30%
CK8, percentage of cells showing positive staining [5, 7]: 100% + ve
CK18, percentage of cells showing positive staining [5, 7]: 100% + ve
CK19, percentage of cells showing positive staining [5, 7]: 100% + ve
SMA, percentage of cells showing positive staining [5, 7]: <1% + ve
Vimentin, percentage of cells showing positive staining [5, 7]: 100% + ve
α1-antitrypsin, percentage of cells showing positive staining [5, 7]: >60% + ve
Albumin, percentage of cells showing positive staining ([5]; EBs on Growth Factor Reduced Matrigel, day 4, 20% FBS + 5 mM sodium butyrate, or 20% FBS + 0.5% DMSO + dexamethazone, insulin, EGF, glucagon, listed as Na butyrate): 30% + ve*
Cultured embryoid body derived cells released from the substrate into the medium ([5]; first day of culture with the differentiation agent): about 90%
